Measurements taken from patent publication US4142046A, “Intermediates for the preparation of 7-acyl-3-(substituted triazolylthiomethyl)cephalosporins” (SmithKline Corporation, priority 1976, dated 1979).
Converted amounts (≈) assume the structure as drawn.

Legend:
S. villaluz = test: MIC in vitro; type: cell-based; conditions: read-out: MIC in vitro
Procedure: (§1) The compounds of Formula I have antibacterial activity against both Gram-positive and Gram-negative organisms. Minimum inhibitory concentrations (MIC's) ranged from 0.2 to >200 μg./ml. in in vitro testing. […] Compound numbers corresponding to structures are given in the experimental section.

Salmonella ATCC 12176 = test: MIC in vitro; type: cell-based; conditions: ATCC12176
Procedure: as §1

Proteus Morgani 179 = test: MIC in vitro; type: cell-based
Procedure: as §1

Pseudo. sp. HH 63 = test: MIC in vitro; type: cell-based
Procedure: as §1

S. aureus SK 23390 = test: MIC in vitro; type: cell-based; conditions: for MIC: Staphylococcus aureus, SK23390, S. aureus SK 23390, read-out: MIC in vitro
Procedure: as §1

E. coli HH 33779 = test: MIC in vitro; type: cell-based; conditions: Escherichia coli, HH33779
Procedure: as §1

Strep. faecalis HH 34358 = test: MIC in vitro; type: cell-based; conditions: for MIC: Enterococcus faecalis, HH34358, Strep. faecalis HH 34358
Procedure: as §1

Serra. marc. ATCC 13880 = test: MIC in vitro; type: cell-based
Procedure: as §1

Shigella HH 117 = test: MIC in vitro; type: cell-based; conditions: Shigella, HH117, Shigella HH 117
Procedure: as §1

Entero. cloacae HH 31254 = test: MIC in vitro; type: cell-based; conditions: Enterobacter cloacae, HH31254, read-out: MIC in vitro
Procedure: as §1

E. coli 12140 = test: In vivo mouse protection (ED50)
Kleb. pneumo. SK 4200 = test: MIC in vitro; type: cell-based; conditions: Kleb. pneumo. SK 4200; read-out: MIC in vitro
Procedure: as §1

[1] = test system: Entero. aerog. ATCC 13048; test: MIC in vitro; type: cell-based
Procedure: as §1

Kleb. pneumo. SK 1200 = test: MIC in vitro; type: cell-based; conditions: Kleb. pneumo. SK 1200; read-out: MIC in vitro
Procedure: as §1

S. aureus HH 127 = test: MIC in vitro; type: cell-based; conditions: Staphylococcus aureus, HH127; S. aureus HH 127; read-out: MIC in vitro
Procedure: as §1

E. coli SK 12140 = test: MIC in vitro; type: cell-based; conditions: Escherichia coli, SK12140; E. coli SK 12140; read-out: MIC in vitro
Procedure: as §1

Kleb. pneumo. 4200 = test: In vivo mouse protection (ED50); conditions: for ED50: Mus musculus
[2] = Escherichia coli, 12140, po, E. coli 12140, p.o.
[3] = Escherichia coli, 12140, sc, E. coli 12140, s.c.

Compound	MIC (S. villaluz)	MIC (Salmonella ATCC 12176)	MIC (Proteus Morgani 179)	MIC (S. aureus SK 23390)	MIC (E. coli HH 33779)	MIC (Strep. faecalis HH 34358)	MIC (Serra. marc. ATCC 13880)	MIC (Shigella HH 117)	ED50 (E. coli 12140; [2])	ED50 (E. coli 12140; [3])	MIC (Kleb. pneumo. SK 4200)	MIC [1]	MIC (Kleb. pneumo. SK 1200)	MIC (S. aureus HH 127)	MIC (E. coli SK 12140)	ED50 (Kleb. pneumo. 4200; po, Kleb. pneumo. 4200, p.o.)	ED50 (Kleb. pneumo. 4200; sc, Kleb. pneumo. 4200, s.c.)	also measured
CCOC(=O)c1nn[nH]c1SCC1=C(C(=O)O)N2C(=O)C(NC(=O)[C@H](N)c3ccc(O)cc3)[C@H]2SC1 (stereo partly drawn) [I, 7-(D-α-Amino-4-hydroxyphenylacetamido)-3-(4-carbethoxy-1,2,3-triazol-5-ylthiomethyl)-3-cephem-4-carboxylic acid]	200 mg/L (≈ 374 µM)	12.5 mg/L (≈ 23.4 µM)	> 200 mg/L	25 mg/L (≈ 46.8 µM)	25 mg/L (≈ 46.8 µM)	200 mg/L (≈ 374 µM)	> 200 mg/L	12.5 mg/L (≈ 23.4 µM)	> 200 mg/kg	100 mg/kg	–	–	–	–	–	–	–	MIC (Pseudo. sp. HH 63): > 200 mg/L; MIC in vitro (S. aureus SK 23390; S. aureus SK 23390): 13 mg/L (≈ 24.3 µM); MIC in vitro (Strep. faecalis HH 34358; Strep. faecalis HH 34358): 100 mg/L (≈ 187 µM); MIC (Entero. cloacae HH 31254): 12.5 mg/L (≈ 23.4 µM)
CCOC(=O)c1nn[nH]c1SCC1=C(C(=O)O)N2C(=O)C(NC(=O)[C@H](N)c3ccccc3)[C@H]2SC1 (stereo partly drawn) [II, 7-(D-α-Aminophenylacetamido)-3-(4-carbethoxy-1,2,3-triazol-5-ylthiomethyl)-3-cephem-4-carboxylic acid]	100 mg/L (≈ 193 µM)	13 mg/L (≈ 25.1 µM)	> 200 mg/L	6 mg/L (≈ 11.6 µM)	50 mg/L (≈ 96.4 µM)	100 mg/L (≈ 193 µM)	> 200 mg/L	13 mg/L (≈ 25.1 µM)	–	–	25 mg/L (≈ 48.2 µM)	50 mg/L (≈ 96.4 µM)	50 mg/L (≈ 96.4 µM)	6 mg/L (≈ 11.6 µM)	25 mg/L (≈ 48.2 µM)	–	–	–
CCOC(=O)Cc1nc(SCC2=C(C(=O)O)N3C(=O)C(NC(=O)[C@H](N)c4ccccc4)[C@H]3SC2)n[nH]1 (stereo partly drawn) [III, 7-(D-α-Aminophenylacetamido)-3-(5-carbethoxymethyl-1,2,4-triazol-3-ylthiomethyl)-3-cephem-4-carboxylic acid]	–	25 mg/L (≈ 46.9 µM)	> 200 mg/L	6 mg/L (≈ 11.3 µM)	50 mg/L (≈ 93.9 µM)	100 mg/L (≈ 188 µM)	> 200 mg/L	13 mg/L (≈ 24.4 µM)	78 mg/kg	–	25 mg/L (≈ 46.9 µM)	100 mg/L (≈ 188 µM)	25 mg/L (≈ 46.9 µM)	6 mg/L (≈ 11.3 µM)	50 mg/L (≈ 93.9 µM)	50 mg/kg	< 3 mg/kg	ED50 in vivo (Kleb. pneumo. 4200; Kleb. pneumo. 4200, s.c.): 3 mg/kg
NC(=O)c1nn[nH]c1SCC1=C(C(=O)O)N2C(=O)C(NC(=O)[C@H](N)c3ccc(O)cc3)[C@H]2SC1 (stereo partly drawn) [IV, 7-(D-α-Amino-4-hydroxyphenylacetamido)-3-(4-carbamoyl-1,2,3-triazol-5-ylthiomethyl)-3-cephem-4-carboxylic acid]	–	1.6 mg/L (≈ 3.16 µM)	> 200 mg/L	3 mg/L (≈ 5.93 µM)	6 mg/L (≈ 11.9 µM)	25 mg/L (≈ 49.5 µM)	> 200 mg/L	1.6 mg/L (≈ 3.16 µM)	35 mg/kg	5.2 mg/kg	6 mg/L (≈ 11.9 µM)	50 mg/L (≈ 98.9 µM)	1.6 mg/L (≈ 3.16 µM)	3 mg/L (≈ 5.93 µM)	6 mg/L (≈ 11.9 µM)	8.2 mg/kg	< 3 mg/kg	–
